Experimental data: patent US9187437B2, “Substituted oxadiazole compounds” (BRISTOL-MYERS SQUIBB COMPANY, priority 2010, dated 2015)

Legend:
S1P1 [1] = molecular target: T1, S1P1 (Homo sapiens (Human), UniProt P21453); experiment: S1P1 Binding Assay (33P-S1P radioligand competition, membranes from CHO cells); conditions: membranes from CHO cells expressing human S1P1; 0.03 nM 33P-S1P; rounded to two significant digits
Experimental: Membranes were prepared from CHO cells expressing human S1P1. Cells pellets (1×10^8 cells/pellet) were suspended in buffer containing 20 mM HEPES, pH 7.5, 50 mM NaCl, 2 mM EDTA and Protease Inhibitor cocktail (Roche), and disrupted on ice using the Polytron homogenizer. The homogenate was centrifuged at 20,000 rpm (48,000 g) and the supernatant was discarded. The membrane pellets were resuspended in buffer containing 50 mM HEPES, pH 7.5, 100 mM NaCl, 1 mM MgCl2, 2 mM EDTA and stored in aliquots at −80° C. after protein concentration determination.
The IC50 is defined as the concentration of competing ligand needed to reduce specific binding by 50%.

S1P1 [2] = molecular target: T1, S1P1; experiment: Receptor [35S] GTPγS Binding Assay, S1P1/CHO cell membranes; type: biochemical; conditions: membranes from S1P1/CHO cells; rounded to two significant digits
Experimental: (§1) Receptor [35S] GTPγS Binding Assays
(§2) Compounds were loaded in a 384 Falcon v-bottom plate (0.5 μl/well in a 11 point, 3-fold dilution). Membranes prepared from S1P1/CHO cells or EDG3-Ga15-bla HEK293T cells were added to the compound plate (40 μl/well, final protein 3 μg/well) with MULTIDROP®. [^35S]GTP (1250 Ci/mmol, Perkin Elmer) was diluted in assay buffer: 20 mM HEPES, pH7.5, 10 mM MgCl2, 150 mM NaCl, 1 mM EGTA, 1 mM DTT, 10 μM GDP, 0.1% fatty acid free BSA, and 10 μg/ml Saponin to 0.4 nM. 40 μl of the [^35S] GTP solution was added to the compound plate with a final concentration of 0.2 nM. The reaction was kept at room temperature for 45 min. At the end of incubation, all the mixtures in the compound plate were transferred to Millipore 384-well FB filter plates via the VELOCITY11® Vprep liquid handler. The filter plate was washed with water 4 times by using the manifold Embla plate washer and dried at 60° C. for 45 min. MicroScint 20 scintillation fluid (30 μl) was added to each well for counting on the Packard TOPCOUNT®. EC50 is defined as the agonist concentration that corresponds to 50% of the Ymax (maximal response) obtained for each individual compound tested. The results in Table B were rounded to two significant digits.

S1P3 = S1P3 (Homo sapiens (Human), UniProt Q99500); experiment: Receptor [35S] GTPγS Binding Assay, EDG3-Ga15-bla HEK293T cell membranes; type: biochemical; conditions: membranes from EDG3-Ga15-bla HEK293T cells; rounded to two significant digits
Chain of S1P3 (Q99500 whole entry): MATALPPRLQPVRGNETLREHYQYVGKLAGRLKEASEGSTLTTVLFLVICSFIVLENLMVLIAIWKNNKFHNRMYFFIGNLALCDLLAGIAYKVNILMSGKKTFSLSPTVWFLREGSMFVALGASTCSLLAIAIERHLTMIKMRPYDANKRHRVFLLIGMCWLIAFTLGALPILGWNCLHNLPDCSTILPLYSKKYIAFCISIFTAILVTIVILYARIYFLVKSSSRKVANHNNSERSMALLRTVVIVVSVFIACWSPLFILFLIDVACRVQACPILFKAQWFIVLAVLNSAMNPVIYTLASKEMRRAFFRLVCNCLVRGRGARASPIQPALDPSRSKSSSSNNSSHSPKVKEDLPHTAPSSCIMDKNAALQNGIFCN
Experimental: as §1, §2

T1 sequence (P21453 whole entry): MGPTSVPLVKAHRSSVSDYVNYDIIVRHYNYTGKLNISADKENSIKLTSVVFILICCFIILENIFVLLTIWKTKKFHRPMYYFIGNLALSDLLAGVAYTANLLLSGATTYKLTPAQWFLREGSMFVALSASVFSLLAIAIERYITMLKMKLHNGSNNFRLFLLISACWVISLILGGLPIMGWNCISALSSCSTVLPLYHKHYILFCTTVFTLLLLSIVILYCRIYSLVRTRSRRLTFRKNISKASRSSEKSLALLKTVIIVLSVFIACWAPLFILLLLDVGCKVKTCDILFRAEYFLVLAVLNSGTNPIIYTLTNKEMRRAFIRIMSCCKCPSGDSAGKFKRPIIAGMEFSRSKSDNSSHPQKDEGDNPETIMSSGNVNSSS

Structure (SMILES)	IC50 (S1P1 [1]) [µM]	EC50 (S1P1 [2]) [µM]	EC50 (S1P3) [µM]
Cc1ccc(-c2noc(CCC3(c4cc(F)cc(F)c4)CCCCC3)n2)c(=O)[nH]1 [Example 1, 3-(5-(2-(1-(3,5-Difluorophenyl)cyclohexyl)ethyl)-1,2,4-oxadiazol-3-yl)-6-methyl-2(1H)-pyridinone]	1.3		
O=c1cc(-c2noc(CCC3(c4cc(F)cc(F)c4)CCCCC3)n2)cc[nH]1 [Example 2, 4-(5-(2-(1-(3,5-Difluorophenyl)cyclohexyl)ethyl)-1,2,4-oxadiazol-3-yl)-2(1H)-pyridinone]	0.013		
FC(F)(F)c1cc(-c2noc(CCC3(c4ccccc4)CCCCC3)n2)cc(C(F)(F)F)c1 [Example 4, 3-(3,5-bis(trifluoromethyl)phenyl)-5-(2-(1-phenylcyclohexyl)ethyl)-1,2,4-oxadiazole]		0.28	> 62
Fc1ccc(-c2noc(CCC3(c4ccccc4)CCCCC3)n2)cc1 [Example 5, 3-(4-fluorophenyl)-5-(2-(1-phenylcyclohexyl)ethyl)-1,2,4-oxadiazole]	0.012		
c1ccc(-c2noc(CCC3(c4ccccc4)CCCCC3)n2)cc1 [Example 7, 3-phenyl-5-(2-(1-phenylcyclohexyl)ethyl)-1,2,4-oxadiazole]	0.0033	0.13	0.63
FC(F)(F)c1cccc(-c2noc(CCC3(c4ccccc4)CCCCC3)n2)c1 [Example 8, 5-(2-(1-phenylcyclohexyl)ethyl)-3-(3-(trifluoromethyl)phenyl)-1,2,4-oxadiazole]	0.033	0.71	> 62
Cc1cccc(-c2noc(CCC3(c4ccccc4)CCCCC3)n2)c1 [Example 9, 3-(3-methylphenyl)-5-(2-(1-phenylcyclohexyl)ethyl)-1,2,4-oxadiazole]		0.53	2.2
Fc1ccc(-c2noc(CCC3(c4ccccc4)CCCCC3)n2)cc1F [Example 12, 3-(3,4-difluorophenyl)-5-(2-(1-phenylcyclohexyl)ethyl)-1,2,4-oxadiazole]		0.33	5.9
Fc1cc(-c2noc(CCC3(c4ccccc4)CCCCC3)n2)ccc1C(F)(F)F [Example 13, 3-(3-fluoro-4-(trifluoromethyl)phenyl)-5-(2-(1-phenylcyclohexyl)ethyl)-1,2,4-oxadiazole]	0.21		
Clc1ccc(-c2noc(CCC3(c4ccccc4)CCCCC3)n2)c(Cl)c1 [Example 17, 3-(2,4-dichlorophenyl)-5-(2-(1-phenylcyclohexyl)ethyl)-1,2,4-oxadiazole]		0.74	1.2
COc1cc(OC)cc(-c2noc(CCC3(c4ccccc4)CCCCC3)n2)c1 [Example 19, 3-(3,5-dimethoxyphenyl)-5-(2-(1-phenylcyclohexyl)ethyl)-1,2,4-oxadiazole]		2.2	1.7
Fc1ccccc1COc1ccc(-c2noc(CCC3(c4ccccc4)CCCCC3)n2)cc1 [Example 20, 3-(4-((2-fluorobenzyl)oxy)phenyl)-5-(2-(1-phenylcyclohexyl)ethyl)-1,2,4-oxadiazole]	0.41		
Clc1ncn(Cc2cccc(-c3noc(CCC4(c5ccccc5)CCCCC4)n3)c2)c1Cl [Example 24, 3-(3-((4,5-dichloro-1H-imidazol-1-yl)methyl)phenyl)-5-(2-(1-phenylcyclohexyl)ethyl)-1,2,4-oxadiazole]		3.2	1.3
COc1ccc(OC)c(-c2noc(CCC3(c4ccccc4)CCCCC3)n2)c1 [Example 26, 3-(2,5-dimethoxyphenyl)-5-(2-(1-phenylcyclohexyl)ethyl)-1,2,4-oxadiazole]	0.0081	4.9	16
Clc1ccc(COc2ccc(-c3noc(CCC4(c5ccccc5)CCCCC4)n3)cc2)cc1 [Example 27, 3-(4-((4-chlorobenzyl)oxy)phenyl)-5-(2-(1-phenylcyclohexyl)ethyl)-1,2,4-oxadiazole]	0.61		
Fc1ccc(-c2noc(CCC3(c4ccccc4)CCCCC3)n2)c(F)c1 [Example 28, 3-(2,4-difluorophenyl)-5-(2-(1-phenylcyclohexyl)ethyl)-1,2,4-oxadiazole]	0.025		
Nc1cc(-c2noc(CCC3(c4ccccc4)CCCCC3)n2)ccn1 [Example 29, 4-(5-(2-(1-phenylcyclohexyl)ethyl)-1,2,4-oxadiazol-3-yl)-2-pyridinamine]		0.036	0.43
c1ccc(C2(CCc3nc(-c4ccccn4)no3)CCCCC2)cc1 [Example 30, 2-(5-(2-(1-phenylcyclohexyl)ethyl)-1,2,4-oxadiazol-3-yl)pyridine]	0.097		
Clc1cc(-c2noc(CCC3(c4ccccc4)CCCCC3)n2)ccn1 [Example 32, 2-chloro-4-(5-(2-(1-phenylcyclohexyl)ethyl)-1,2,4-oxadiazol-3-yl)pyridine]	0.00054	0.05	0.43
Nc1ncccc1-c1noc(CCC2(c3ccccc3)CCCCC2)n1 [Example 33, 3-(5-(2-(1-phenylcyclohexyl)ethyl)-1,2,4-oxadiazol-3-yl)-2-pyridinamine]	0.0019	0.067	0.55
[O-][n+]1ccc(-c2noc(CCC3(c4ccccc4)CCCCC3)n2)cc1 [Example 34, 4-(5-(2-(1-phenylcyclohexyl)ethyl)-1,2,4-oxadiazol-3-yl)pyridine 1-oxide]	0.067		
c1ccc(C2(CCc3nc(-c4cccnc4)no3)CCCCC2)cc1 [Example 38, 3-(5-(2-(1-phenylcyclohexyl)ethyl)-1,2,4-oxadiazol-3-yl)pyridine]		0.1	2.2
Cc1ccsc1-c1noc(CCC2(c3ccccc3)CCCCC2)n1 [Example 40, 3-(3-methyl-2-thienyl)-5-(2-(1-phenylcyclohexyl)ethyl)-1,2,4-oxadiazole]	0.0012		
c1ccc(-c2noc(C3(c4ccccc4)CCCCC3)n2)cc1 [Example 42, 3-Phenyl-5-(1-phenylcyclohexyl)-1,2,4-oxadiazole, reference compound]	12	> 62	
